From PubChem BioAssay (NCI) come the findings set out here.

Test systems include MDA-MB-231 breast; HT29 colon; TK-10 renal; CCRF-CEM leukemia; NCI-H460 lung; MOLT-4 leukemia; RPMI-8226 leukemia; SN12C renal; PC-3 prostate; NCI/ADR-RES ovarian.
Experiment in all cases: NCI anticancer screen, dose series, 48 h

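Five compound concentrations were applied to cells in 96-well plates for 48 hours; endpoints were derived by simple linear interpolation of the resulting dose-response curve. GI50 is the concentration that inhibits growth by half. TGI marks complete inhibition of growth.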 Some results are limits rather than exact numbers.

With `Cc1cc(Cl)ccc1Nc1sc(C(=O)c2cc3cc(Cl)ccc3o2)c(N)c1C#N`, the TGI was over 55 µM with MDA-MB-231 breast; over 100 µM in the experiment on HT29 colon; over 73.1 µM with TK-10 renal; over 52.8 µM in the experiment with CCRF-CEM leukemia; over 64.3 µM in the experiment on NCI-H460 lung; over 100 µM in the experiment on MOLT-4 leukemia. Moreover, the TGI was over 62.4 µM in the experiment with RPMI-8226 leukemia, over 100 µM in the experiment on SN12C renal, over 100 µM in the experiment with PC-3 prostate and over 23.5 µM in the experiment on NCI/ADR-RES ovarian.

As to `COc1cc2[nH]c(C(=O)c3cc(OC)c(OC)c(OC)c3)c(N)c2cc1C#CCO`, the GI50 is 0.629 µM in the experiment on MDA-MB-231 breast; 0.353 µM in the experiment with HT29 colon; 44.1 µM in the experiment on TK-10 renal; 0.309 µM with CCRF-CEM leukemia; 0.394 µM with NCI-H460 lung; 0.649 µM in the experiment with MOLT-4 leukemia. For the same compound, the GI50 with RPMI-8226 leukemia was 1.64 µM; in the experiment with SN12C renal, 1.4 µM; in the experiment with PC-3 prostate, 0.277 µM; in the experiment on NCI/ADR-RES ovarian, 2.22 µM. Besides, the TGI in the experiment on MDA-MB-231 breast, with HT29 colon, with TK-10 renal, in the experiment on CCRF-CEM leukemia, in the experiment with NCI-H460 lung and in the experiment with MOLT-4 leukemia was over 100 µM in each case. Further, the TGI in the experiment on RPMI-8226 leukemia was 83.6 µM; in the experiment with SN12C renal it was 98.3 µM; with PC-3 prostate, over 100 µM; in the experiment on NCI/ADR-RES ovarian, 32.6 µM.

For the compound `O=C(OC(C(=O)O)C(OC(=O)c1ccccc1)C(=O)O)c1ccccc1` (configuration not stated) (tested in a mixture with another compound), the TGI is 95.2 µM in the experiment with MDA-MB-231 breast; over 100 µM in the experiment on HT29 colon; over 100 µM with TK-10 renal; over 100 µM in the experiment on CCRF-CEM leukemia; over 100 µM in the experiment with NCI-H460 lung; over 100 µM in the experiment on MOLT-4 leukemia. Further, the TGI in the experiment with RPMI-8226 leukemia was over 100 µM; in the experiment with SN12C renal it was over 100 µM; with PC-3 prostate, 33.5 µM; in the experiment on NCI/ADR-RES ovarian, over 100 µM.

For the compound `COc1ccc(C(=S)c2cc(OC)c(OC)c(OC)c2)cc1OC(=O)CCl`, the GI50 in the experiment on MDA-MB-231 breast was 0.0253 µM; with HT29 colon, 1.99 µM; in the experiment on TK-10 renal, 32.6 µM; in the experiment with CCRF-CEM leukemia, under 0.0167 µM; in the experiment on NCI-H460 lung, 0.0301 µM; in the experiment on MOLT-4 leukemia, under 0.0186 µM. In addition, the GI50 in the experiment on RPMI-8226 leukemia was under 0.0196 µM; in the experiment with SN12C renal, 0.0241 µM; with PC-3 prostate, under 0.0172 µM; in the experiment on NCI/ADR-RES ovarian, under 0.0127 µM. The TGI in the experiment on HT29 colon is over 100 µM; in the experiment on TK-10 renal it was over 100 µM; with CCRF-CEM leukemia it was over 100 µM; in the experiment with NCI-H460 lung, 12.9 µM; with MOLT-4 leukemia it was over 100 µM; in the experiment on RPMI-8226 leukemia, 25.2 µM. The TGI with SN12C renal, with PC-3 prostate and with NCI/ADR-RES ovarian was over 100 µM each time.

For `CC(C)C1C(=O)N2CCCC2C2(O)OC(NC(=O)C3C=C4c5cccc6[nH]cc(c56)CC4N(C)C3)(C(C)C)C(=O)N12` (configuration not stated), the TGI was found to be 34.3 µM in the experiment with MDA-MB-231 breast; 37.5 µM with HT29 colon; 68.6 µM in the experiment on TK-10 renal; 91.3 µM with CCRF-CEM leukemia; 39.2 µM in the experiment with NCI-H460 lung; 53.8 µM in the experiment with MOLT-4 leukemia. In addition, the TGI in the experiment with RPMI-8226 leukemia is 47.9 µM; in the experiment on SN12C renal, over 100 µM; in the experiment on PC-3 prostate, 87.3 µM; in the experiment with NCI/ADR-RES ovarian, 57.5 µM.

Regarding `Nc1nc(N)c2nc(CNc3ccc(C(=O)CC(CCC(=O)O)C(=O)O)cc3)cnc2n1` (configuration not stated), the GI50 was over 100 µM in the experiment on MDA-MB-231 breast; 0.0417 µM in the experiment on HT29 colon; 0.385 µM in the experiment with TK-10 renal; 0.0562 µM with CCRF-CEM leukemia; 0.127 µM in the experiment on NCI-H460 lung; 0.125 µM in the experiment on MOLT-4 leukemia. For the same compound, the GI50 with SN12C renal is 0.18 µM; with NCI/ADR-RES ovarian, 0.224 µM. Moreover, the TGI in the experiment on MDA-MB-231 breast, with HT29 colon, with TK-10 renal, with CCRF-CEM leukemia, in the experiment with NCI-H460 lung and in the experiment on MOLT-4 leukemia was over 100 µM in each case. The TGI in the experiment on RPMI-8226 leukemia, in the experiment on SN12C renal, in the experiment on PC-3 prostate and in the experiment with NCI/ADR-RES ovarian was over 100 µM each time.

For the compound `CN1CCN(C(=O)c2ccc(NC(=O)Nc3ccc(N(C)c4ccnc(Nc5ccc(CS(C)(=O)=O)cc5)n4)cc3)cc2)CC1`, the GI50 with MDA-MB-231 breast is over 23.8 µM; with HT29 colon, 11.4 µM; in the experiment on TK-10 renal it was over 25 µM; in the experiment on CCRF-CEM leukemia, 7.07 µM; in the experiment on NCI-H460 lung it was 11.8 µM; with MOLT-4 leukemia, 9.25 µM. In addition, the GI50 in the experiment on RPMI-8226 leukemia is 8.85 µM; with SN12C renal it was 9.42 µM; in the experiment with PC-3 prostate it was 9.09 µM; in the experiment with NCI/ADR-RES ovarian it was over 25 µM. Besides, the TGI in the experiment on MDA-MB-231 breast, in the experiment on HT29 colon, in the experiment with TK-10 renal, in the experiment on CCRF-CEM leukemia, in the experiment with NCI-H460 lung and with MOLT-4 leukemia was over 25 µM throughout. Also, the TGI with RPMI-8226 leukemia, in the experiment with SN12C renal, in the experiment on PC-3 prostate and in the experiment with NCI/ADR-RES ovarian was over 25 µM in each case.
